Data taken from BindingDB's records for doi:10.1016/j.chembiol.2016.11.013 (Peking University, 2017).

Legend:
[1] = biological target: T1, D-3-phosphoglycerate dehydrogenase (Homo sapiens, UniProt O43175); assay: PHGDH Enzyme Assay; conditions: pH 7.1
T1 sequence (O43175 whole entry): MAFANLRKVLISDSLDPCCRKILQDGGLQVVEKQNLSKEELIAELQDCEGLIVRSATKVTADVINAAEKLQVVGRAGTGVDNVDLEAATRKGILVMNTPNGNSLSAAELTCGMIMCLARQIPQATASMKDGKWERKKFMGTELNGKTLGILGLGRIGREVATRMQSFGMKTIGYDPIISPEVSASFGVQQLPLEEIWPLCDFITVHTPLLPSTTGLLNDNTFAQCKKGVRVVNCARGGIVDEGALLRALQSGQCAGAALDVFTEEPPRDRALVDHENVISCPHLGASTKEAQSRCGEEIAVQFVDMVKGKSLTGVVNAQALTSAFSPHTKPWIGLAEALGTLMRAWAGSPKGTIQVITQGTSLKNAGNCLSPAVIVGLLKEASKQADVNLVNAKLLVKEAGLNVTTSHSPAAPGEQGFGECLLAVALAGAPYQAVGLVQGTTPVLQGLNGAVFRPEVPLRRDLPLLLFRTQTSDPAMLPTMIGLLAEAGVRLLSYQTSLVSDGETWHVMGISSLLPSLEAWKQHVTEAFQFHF
Procedure: (§1) To evaluate the effects of compounds on PHGDH activity, compounds were first pre-incubated with enzyme samples in the assay buffer (25 mM HEPES, pH 7.1, 400 mM KCl, 5 μM phosphopyridoxa (PLP), 0.5 mM α-ketoglutarate, 150 μM NADH, 1 mM DTT) for 10 min at 25℃, then the reaction was started by adding L-phospho-O-serine (Pser). […] Fluorescence signals were recorded for 3 min with a kinetics mode program using on a plate reader (Synergy, Biotek).

[2] = biological target: T2, D-3-phosphoglycerate dehydrogenase [3-314] (Homo sapiens, UniProt O43175); assay: PHGDH Enzyme Assay; conditions: pH 7.1
T2 construct: 3-314
T2 sequence (O43175 whole entry): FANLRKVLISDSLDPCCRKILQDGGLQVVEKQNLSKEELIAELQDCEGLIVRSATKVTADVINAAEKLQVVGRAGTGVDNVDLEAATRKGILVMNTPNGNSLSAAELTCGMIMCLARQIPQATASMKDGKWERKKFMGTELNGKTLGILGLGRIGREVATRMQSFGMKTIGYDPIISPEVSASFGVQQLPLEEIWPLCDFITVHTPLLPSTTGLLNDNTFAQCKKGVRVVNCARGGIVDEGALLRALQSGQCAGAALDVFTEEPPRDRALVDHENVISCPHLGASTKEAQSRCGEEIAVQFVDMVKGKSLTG
Procedure: as §1

[3] = biological target: T1, D-3-phosphoglycerate dehydrogenase; assay: PHGDH SPR Assay; conditions: pH 7.4
Procedure: The binding affinities of compounds towards PHGDH were assayed using the SPR-based Biacore T200 instrument (GE Healthcare). PHGDH was immobilized on a CM5 sensor chip by using standard amine-coupling at 25℃ with running buffer PBS-P (20 mM phosphate buffer, […], 0.05% surfactant P-20, pH 7.4), respectively, as described previously. A reference flow cell was activated and blocked in the absence of PHGDH. […] Regeneration was achieved by extended washing with the running buffer after each sample injection.

| SMILES | IC50 [1] | IC50 [2] | Kd [3] | Kd ([3]; read-out: Kd) |
| --- | --- | --- | --- | --- |
| O=C1N[C@H]2[C@H](CS[C@H]2CCCCC(=O)OCc2cc([N+](=O)[O-])cc(/C=N/NC(=O)c3ccc(O)cc3O)c2O)N1 [PKUMDL-WQ-2101-Biotin] | 49.5 µM | – | – | – |
| O=C(N/N=C/c1cc([N+](=O)[O-])ccc1O)c1ccc(O)cc1O [PKUMDL-WQ-2101] | 44.9 µM | 30.1 µM | 0.56 µM | – |

Second part, the molecule after the results:

| IC50 [1] | IC50 [2] | Kd [3] | Kd ([3]; read-out: Kd) | SMILES |
| --- | --- | --- | --- | --- |
| – | 35 µM | – | 66.9 µM | CCNC(=S)N/N=C\c1ccc(-c2ccc(C(=O)O)c(Cl)c2)o1 [PKUMDL-WQ-2201] |
| 42 µM | – | – | 29 µM | Cc1c(/N=N/c2cccc(C(=O)O)c2)c(O)[nH]c(=O)c1C#N [PKUMDL-WQ-2202] |
| 28.1 µM | – | – | 7.22 µM | O=C(O)CSC1=C(SCC(=O)O)C(=O)C(SCC(=O)O)=C(SCC(=O)O)C1=O [PKUMDL-WQ-2203] |
